Assays:
RAR α = target: T1, RAR α (Homo sapiens, UniProt P10276); assay: Affinity for RAR α receptor (Kd); assay type: binding; settings: read-out: Affinities for receptors Kd, RAR α
T1 sequence (P10276 1-462): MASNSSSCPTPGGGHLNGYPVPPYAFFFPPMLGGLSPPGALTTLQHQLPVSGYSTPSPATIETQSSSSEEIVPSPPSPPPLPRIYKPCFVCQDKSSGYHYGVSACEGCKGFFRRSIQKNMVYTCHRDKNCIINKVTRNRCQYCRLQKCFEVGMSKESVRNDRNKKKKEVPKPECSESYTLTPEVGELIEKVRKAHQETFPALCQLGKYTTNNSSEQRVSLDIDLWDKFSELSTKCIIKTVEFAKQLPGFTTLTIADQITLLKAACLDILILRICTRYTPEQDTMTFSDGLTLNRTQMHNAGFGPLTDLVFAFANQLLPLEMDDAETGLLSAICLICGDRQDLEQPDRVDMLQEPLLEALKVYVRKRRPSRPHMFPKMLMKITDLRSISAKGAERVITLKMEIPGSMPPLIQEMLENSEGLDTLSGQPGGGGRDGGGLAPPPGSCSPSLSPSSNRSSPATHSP
Procedure: (§1) Biological activities of certain compounds described and exemplified above:
(§2) ^(a) The affinites for the RARs were determined under the conditions
(§3) described in B. Martin et al, "Selective Synthetic Ligands for Human
(§4) Nuclear Retinoic Acid Receptors," Skin Pharmacol., 5, 57-65 (1992).

RAR β = target: T2, RAR β (Homo sapiens, UniProt P10826); assay: Affinity for RAR β receptor (Kd); assay type: binding; settings: read-out: Affinities for receptors Kd, RAR β
T2 sequence (P10826 1-448 isoform P10826-2): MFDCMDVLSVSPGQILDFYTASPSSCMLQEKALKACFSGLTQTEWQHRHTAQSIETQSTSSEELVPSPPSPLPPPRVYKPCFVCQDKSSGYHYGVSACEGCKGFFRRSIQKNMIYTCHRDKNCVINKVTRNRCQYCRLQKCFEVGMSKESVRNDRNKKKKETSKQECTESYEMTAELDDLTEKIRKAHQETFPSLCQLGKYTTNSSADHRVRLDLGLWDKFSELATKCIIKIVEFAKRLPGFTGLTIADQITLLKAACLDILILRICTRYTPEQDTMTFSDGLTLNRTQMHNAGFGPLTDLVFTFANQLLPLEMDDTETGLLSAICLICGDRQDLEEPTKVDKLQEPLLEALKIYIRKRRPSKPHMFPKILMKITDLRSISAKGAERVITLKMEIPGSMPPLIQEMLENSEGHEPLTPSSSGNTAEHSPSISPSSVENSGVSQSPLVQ
Procedure: as §1, §2, §3, §4

RAR γ = target: T3, RAR γ (Homo sapiens, UniProt P13631); assay: Affinity for RAR γ receptor (Kd); assay type: binding; settings: read-out: Affinities for receptors Kd, RAR γ
T3 sequence (P13631 1-454): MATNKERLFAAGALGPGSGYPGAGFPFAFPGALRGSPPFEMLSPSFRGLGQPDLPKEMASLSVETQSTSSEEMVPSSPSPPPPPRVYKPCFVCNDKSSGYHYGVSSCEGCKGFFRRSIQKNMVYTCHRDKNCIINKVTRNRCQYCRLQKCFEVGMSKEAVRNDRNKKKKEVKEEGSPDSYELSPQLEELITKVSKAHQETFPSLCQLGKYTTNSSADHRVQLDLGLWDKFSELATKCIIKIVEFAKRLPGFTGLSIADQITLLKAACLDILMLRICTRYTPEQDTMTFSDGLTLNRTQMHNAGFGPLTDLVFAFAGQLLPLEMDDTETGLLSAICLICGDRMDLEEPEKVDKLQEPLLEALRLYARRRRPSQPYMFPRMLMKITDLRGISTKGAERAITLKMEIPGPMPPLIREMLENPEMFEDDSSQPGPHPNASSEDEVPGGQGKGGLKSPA
Procedure: as §1, §2, §3, §4

F9 cells [1] = assay: Antagonist activity with respect to the differentiation of F9 cells; assay type: cell-based; settings: Mus musculus; coincubation with reference agonist (F9 AC50 = 4nM)
Procedure: Their activities may also be measured in tests of cellular transactivation using previously transfected recombinant RAR or RXR receptors (B. A. Bernard et al, Biochemical and Biophysical Research Communications, vol. 186, pp. 977-983 (1992)); M. F. Boehm et al, Journal of Medicinal Chemistry, p37, pp. 408-414 (1994)).
^(b) The antagonist activity was determined by coincubating a
[N(4-carboxybenzyl)-5,6,7,8-tetrahydro-5,5,8,8-tetramethyl-2-naphthylamin
(F9 AC50 = 4nM)] and different concentrations of the test retinoid.
These experiments were carried out under conditions for the determination
of activity with respect to the differentiation of F9 cells according to
the technique described in M. Darmon, M. Rocher, M. T. Cavey, B. Martin,
T. Rabilloud, C. Delescluse and B. Shroot, "Biological activity of
retinoids correlates with affinity for nuclear receptors, but not for
cytosolic binding protein," Skin Pharmacol., 1, 161-175 (1988).

F9 cells [2] = assay: Agonist activity, differentiation of F9 cells; assay type: cell-based; settings: Mus musculus, reference agonist

SMILES	Kd (RAR α) [nM]	Kd (RAR β) [nM]	Kd (RAR γ) [nM]	IC50 (F9 cells [1]) [nM]	AC50 (F9 cells [2]) [nM]
CC12CCC(C1)C1(C)Oc3ccc(C(=O)/C=C/c4ccc(C(=O)O)cc4)cc3C21C (single isomer, unassigned) [Example 23, 4-[(E)-3-(1,2,3,4-Tetrahydro-1,4a,9b-trimethyl-1,4-methanodibenzofuran-8-yl)-3-oxo-1-propenyl]benzoic acid]	220	53	27	19	
CC12CCC(C1)C1(C)Oc3ccc(C(O)COc4ccc(C(=O)O)cc4)cc3C21C (stereo not drawn) [Example 13, 4-[2-(1,2,3,4-tetrahydro-1,4a,9b-trimethyl-1,4-methanodibenzofuran-8-yl)-2-hydroxyethoxy]benzoic acid]	> 3200	230	40	36	
CC1(C)CCC(C)(C)c2cc(NCc3ccc(C(=O)O)cc3)ccc21 [N(4-carboxybenzyl)-5,6,7,8-tetrahydro-5,5,8,8-tetramethyl-2-naphthylamin]					4

More lines, main results first:

Kd (RAR α) [nM]	Kd (RAR β) [nM]	Kd (RAR γ) [nM]	IC50 (F9 cells [1]) [nM]	SMILES	AC50 (F9 cells [2]) [nM]
> 10000	315	2250	270	CC12CCC(C1)C1(C)Oc3ccc(CCOc4ccc(C(=O)O)c(O)c4)cc3C21C (stereo not drawn) [Example 17, 4-[2-(1,2,3,4-tetrahydro-1,4a,9b-trimethyl-1,4-methanodibenzofuran-8-yl)ethoxy]-2-hydroxybenzoic acid]	
3200	745	481	40	CC12CCC(C1)C1(C)Oc3ccc(C(=O)COc4ccc(C(=O)O)cc4)cc3C21C (stereo not drawn) [Example 12, 4-[2-(1,2,3,4-tetrahydro-1,4a,9b-trimethyl-1,4-methanodibenzofuran-8-yl)-2-oxoethoxy]benzoic acid]	
2500	114	150	55	CC12CCC(C1)C1(C)Oc3ccc(C(=O)COc4ccc(C(=O)O)c(O)c4)cc3C21C (stereo not drawn) [Example 15, 4-[2-(1,2,3,4-tetrahydro-1,4a,9b-trimethyl-1,4-methanodibenzofuran-8-yl)-2-oxoethoxy]-2-hydroxybenzoic acid]	
